Data published in ChEMBL document CHEMBL1201862, “PubChem BioAssay data set” (2004).
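Method: 48-hour compound exposure of cells in 96-well plates, five concentrations, linear interpolation of endpoints. The concentration for 50% growth inhibition is given as GI50.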 Calls of active or inactive are those of the source. No stated cut-off is given here; in the data, active = GI50 up to about 1.1 µM and inactive = higher.

Tests used:
Assay in all cases: NCI tumour cell line growth inhibition, 48 h
RXF 393 = tested on: RXF 393
SF-295 = tested on: SF-295
OVCAR-5 = tested on: OVCAR-5
SNB-19 = tested on: SNB-19
OVCAR-3 = tested on: OVCAR-3
CAKI-1 = tested on: CAKI-1
HCT-116 = tested on: HCT-116
HOP-62 = tested on: HOP-62
ACHN = tested on: ACHN
EKVX = tested on: EKVX
SF-539 = tested on: SF-539
OVCAR-8 = tested on: OVCAR-8
SNB-75 = tested on: SNB-75
M14 = tested on: M14
OVCAR-4 = tested on: OVCAR-4
NCI-H522 = tested on: NCI-H522

Measured: GI50

Cc1ccc(NC(=O)/C(=N/NC(=O)C[N+](C)(C)C)c2nc3ccccc3nc2O)cc1
inactive: RXF 393 > 100 µM | SF-295 > 100 µM | OVCAR-5 > 100 µM | SNB-19 > 100 µM | OVCAR-3 > 100 µM | CAKI-1 > 100 µM | HCT-116 > 100 µM | HOP-62 > 100 µM | ACHN > 100 µM | EKVX > 100 µM | SF-539 > 100 µM | OVCAR-8 > 100 µM | SNB-75 > 100 µM | M14 > 100 µM | OVCAR-4 > 100 µM

CC(=O)OCC1OC(Sc2ccccn2)C=CC1OC(C)=O (stereo not given)
inactive: RXF 393 > 100 µM | SF-295 > 100 µM | OVCAR-5 > 100 µM | SNB-19 > 100 µM | OVCAR-3 > 100 µM | HCT-116 > 100 µM | HOP-62 > 100 µM | ACHN > 100 µM | EKVX > 100 µM | SF-539 > 100 µM | OVCAR-8 > 100 µM | SNB-75 > 100 µM | M14 > 100 µM | NCI-H522 > 100 µM | OVCAR-4 > 100 µM

On1c(-c2ccccc2)c(-c2ccccc2N2CCCC2)c2ccccc21
inactive: SF-295 > 100 µM | OVCAR-5 > 100 µM | SNB-19 > 100 µM | OVCAR-3 > 100 µM | CAKI-1 > 100 µM | HCT-116 > 100 µM | HOP-62 > 100 µM | ACHN > 100 µM | EKVX > 100 µM | SF-539 > 100 µM | OVCAR-8 > 100 µM | SNB-75 > 100 µM | M14 > 100 µM | NCI-H522 > 100 µM | OVCAR-4 > 100 µM

COc1cc(C2C(Cl)C(=O)N2NC(=O)c2ccc(N)cc2)ccc1O (stereo not given)
inactive: SF-295 67.8 µM | OVCAR-5 56.6 µM | SNB-19 25.3 µM | OVCAR-3 16.6 µM | CAKI-1 25.5 µM | HCT-116 22.9 µM | HOP-62 35.9 µM | ACHN > 100 µM | EKVX 92 µM | SF-539 26.5 µM | OVCAR-8 21.5 µM | SNB-75 75.5 µM | M14 51.8 µM | NCI-H522 19.8 µM | OVCAR-4 81.3 µM

Brc1ccc(N2C[N+](c3ccc(Br)cc3)=NC(c3ccccc3)=N2)cc1.[O-][Cl+3]([O-])([O-])[O-]
inactive: RXF 393 > 100 µM | SF-295 29.4 µM | OVCAR-5 > 100 µM | SNB-19 > 100 µM | CAKI-1 > 100 µM | HCT-116 49.2 µM | HOP-62 74.1 µM | ACHN 50.2 µM | EKVX 33.9 µM | SF-539 > 100 µM | OVCAR-8 > 100 µM | SNB-75 > 100 µM | M14 58.3 µM | NCI-H522 36 µM | OVCAR-4 > 100 µM

COC(=O)/C(=C/c1ccc(OC)cc1)C(C(=O)O)=C1CCCCC1
inactive: RXF 393 > 100 µM | SF-295 > 100 µM | OVCAR-5 > 100 µM | SNB-19 > 100 µM | CAKI-1 > 100 µM | HCT-116 > 100 µM | HOP-62 > 100 µM | ACHN > 100 µM | EKVX > 100 µM | SF-539 > 100 µM | OVCAR-8 > 100 µM | SNB-75 > 100 µM | M14 > 100 µM | NCI-H522 > 100 µM | OVCAR-4 > 100 µM

O=C1C2ON3c4ccccc4C(=O)C3(c3ccccc3)C2C(=O)N1c1ccccc1 (stereo not given)
inactive: RXF 393 > 100 µM | SF-295 > 100 µM | SNB-19 > 100 µM | HCT-116 > 100 µM | HOP-62 > 100 µM | ACHN > 100 µM | EKVX > 100 µM | SF-539 > 100 µM | OVCAR-8 > 100 µM | SNB-75 > 100 µM | M14 > 100 µM | NCI-H522 > 100 µM | OVCAR-4 > 100 µM

COc1ccc(OCC(=O)O)c2c1CCC(C)C2=O (stereo not given)
inactive: SF-295 > 100 µM | OVCAR-5 > 100 µM | SNB-19 > 100 µM | OVCAR-3 > 100 µM | CAKI-1 > 100 µM | HCT-116 > 100 µM | HOP-62 > 100 µM | ACHN > 100 µM | EKVX > 100 µM | SF-539 > 100 µM | OVCAR-8 > 100 µM | M14 > 100 µM | NCI-H522 > 100 µM | OVCAR-4 > 100 µM

Cc1cc2c(c(C(N)=O)c1C)-c1cccc(Cl)c1C2=O
inactive: SF-295 > 100 µM | OVCAR-5 > 100 µM | SNB-19 64.1 µM | OVCAR-3 > 100 µM | HCT-116 > 100 µM | HOP-62 > 100 µM | ACHN > 100 µM | EKVX > 100 µM | SF-539 > 100 µM | OVCAR-8 > 100 µM | SNB-75 6.7 µM | M14 > 100 µM | NCI-H522 27 µM | OVCAR-4 > 100 µM

COC(=O)[C@]12CSCN1C(=O)C(C(C)=O)=NN2C(=O)[C@](OC)(c1ccccc1)C(F)(F)F
inactive: RXF 393 90.6 µM | SF-295 > 100 µM | OVCAR-5 > 100 µM | SNB-19 > 100 µM | OVCAR-3 > 100 µM | HCT-116 > 100 µM | HOP-62 > 100 µM | ACHN > 100 µM | EKVX > 100 µM | SF-539 > 100 µM | OVCAR-8 > 100 µM | SNB-75 8.17 µM | M14 > 100 µM | NCI-H522 88.7 µM | OVCAR-4 > 100 µM

C=CC1=C(C)/C(=C/C2=NC(=C\c3[nH]c(CC4NC(=O)C(C)/C4=C\C)c(C)c3CCC(=O)O)/C(CC(=O)O)=C2C)NC1=O (stereo not given)
inactive: RXF 393 > 100 µM | SF-295 > 100 µM | OVCAR-5 > 100 µM | SNB-19 > 100 µM | OVCAR-3 > 100 µM | CAKI-1 > 100 µM | HCT-116 > 100 µM | HOP-62 > 100 µM | ACHN > 100 µM | EKVX > 100 µM | SF-539 > 100 µM | OVCAR-8 > 100 µM | SNB-75 > 100 µM | M14 > 100 µM | NCI-H522 > 100 µM | OVCAR-4 > 100 µM

CN1C2(c3ccccc3)c3c(-c4ccccc4)sc(-c4ccccc4)c3C1(c1ccccc1)C1C(=O)N(c3ccccc3)C(=O)C12 (stereo not given)
inactive: RXF 393 > 100 µM | SF-295 > 100 µM | OVCAR-5 > 100 µM | SNB-19 > 100 µM | OVCAR-3 > 100 µM | CAKI-1 > 100 µM | HCT-116 > 100 µM | HOP-62 > 100 µM | ACHN > 100 µM | EKVX > 100 µM | SF-539 > 100 µM | OVCAR-8 > 100 µM | SNB-75 > 100 µM | M14 > 100 µM | NCI-H522 > 100 µM | OVCAR-4 > 100 µM

Cc1c(-c2nnc(-c3ccccc3)o2)c(=O)n(-c2ccccc2)n1C
inactive: RXF 393 > 100 µM | SF-295 > 100 µM | SNB-19 > 100 µM | OVCAR-3 > 100 µM | HCT-116 > 100 µM | HOP-62 > 100 µM | ACHN > 100 µM | EKVX > 100 µM | SF-539 > 100 µM | OVCAR-8 > 100 µM | SNB-75 > 100 µM | M14 > 100 µM | NCI-H522 > 100 µM | OVCAR-4 > 100 µM

Cc1cc(N)c(C)c2c1[nH]c1ccc(O)cc12
inactive: SF-295 > 100 µM | OVCAR-5 > 100 µM | SNB-19 > 100 µM | OVCAR-3 50.6 µM | CAKI-1 > 100 µM | HCT-116 > 100 µM | HOP-62 > 100 µM | ACHN > 100 µM | EKVX > 100 µM | SF-539 > 100 µM | OVCAR-8 88.5 µM | M14 > 100 µM | NCI-H522 17 µM | OVCAR-4 > 100 µM

CS(=O)(=O)c1ccc(-c2cc(-c3ccc(S(C)(=O)=O)cc3)[n+](-c3cc(-c4ccccc4)c([O-])c(-c4ccccc4)c3)c(-c3ccc(S(C)(=O)=O)cc3)c2)cc1
inactive: RXF 393 > 100 µM | SF-295 > 100 µM | OVCAR-5 > 100 µM | SNB-19 > 100 µM | OVCAR-3 > 100 µM | CAKI-1 > 100 µM | HCT-116 > 100 µM | HOP-62 > 100 µM | ACHN > 100 µM | EKVX > 100 µM | SF-539 > 100 µM | OVCAR-8 > 100 µM | M14 > 100 µM | NCI-H522 > 100 µM | OVCAR-4 > 100 µM

O=c1ccn([C@H]2CSC[C@@H](CO)C2)c(=O)[nH]1
inactive: SF-295 > 10 µM | OVCAR-5 > 100 µM | SNB-19 > 100 µM | OVCAR-3 > 100 µM | CAKI-1 > 100 µM | HCT-116 > 100 µM | HOP-62 > 100 µM | ACHN > 100 µM | EKVX > 100 µM | SF-539 > 100 µM | OVCAR-8 > 100 µM | SNB-75 56.4 µM | M14 > 100 µM | NCI-H522 > 100 µM | OVCAR-4 > 100 µM

O=c1ccccc2cccc(O)c12
inactive: RXF 393 > 100 µM | SF-295 > 100 µM | SNB-19 > 100 µM | OVCAR-3 > 100 µM | CAKI-1 > 100 µM | HCT-116 > 100 µM | HOP-62 > 100 µM | ACHN > 100 µM | EKVX 94.2 µM | SF-539 > 100 µM | OVCAR-8 > 100 µM | SNB-75 > 100 µM | M14 > 100 µM | OVCAR-4 > 100 µM

CC(=O)OC(C)(C)C1CCC(C)(C(O)COc2ccc(CCNC(=O)c3ccccc3)cc2)O1 (stereo not given)
inactive: RXF 393 6.68 µM | SF-295 37.1 µM | OVCAR-5 > 100 µM | SNB-19 > 100 µM | OVCAR-3 27.6 µM | CAKI-1 > 100 µM | HCT-116 28.8 µM | HOP-62 43.2 µM | ACHN 54.1 µM | SF-539 60.8 µM | OVCAR-8 47.5 µM | SNB-75 91.6 µM | M14 28.6 µM | NCI-H522 51.2 µM | OVCAR-4 63.2 µM
